Test results published in US20160130259A1, “SUBSTITUTED BENZOFURAN COMPOUNDS AND METHODS OF USE THEREOF FOR THE TREATMENT OF VIRAL DISEASES” (priority 2013, published 2016).

Assays:
HCV replicon genotype 1a = assay: HCV replicon assay, genotype 1a (cell ELISA for NS3/4A); assay type: cell-based; conditions: Hepatitis C virus, 96 h, read-out: 1a IC50 (nM)
Description: (§1) Measurement of inhibition by compounds was performed using the HCV replicon system. Several different replicons encoding different HCV genotypes or mutations were used. In addition, potency measurements were made using different formats of the replicon assay, including different ways of measurements and different plating formats. See Jan M. Vrolijk et al., A replicons-based bioassay for the measurement of interferons in patients with chronic hepatitis C, 110 J. Virological Methods 201 (2003); Steven S. Carroll et al., Inhibition of Hepatitis C Virus RNA Replication by 2′-Modified Nucleoside Analogs, 278(14) J. Biological Chemistry 11979 (2003). However, the underlying principles are common to all of these determinations, and are outlined below.
(§2) Stable neomycin phosphotransferase encoding replicons-harboring cell lines were used, so all cell lines were maintained under G418 selection prior to the assay. Potency was determined using a cell ELISA assay with an antibody to the replicons encoded NS3/4a protease. See Caterina Trozzi et al., In Vitro Selection and Characterization of Hepatitis C Virus Serine Protease Variants Resistant to an Active-Site Peptide Inhibitor, 77(6) J. Virol. 3669 (2003). To initiate an assay, replicon cells were plated in the presence of a dilution series of test compound in the absence of G418. Typically, the assays were performed in a 96-well plate formate for manual operation, or a 384-well plate format for automated assay. Replicon cells and compound were incubated for 96 hours. At the end of the assay, cells were washed free of media and compound, and the cells were then lysed. RNA was quantified indirectly through detection of replicon-encoded NS3/4A protein levels, through an ELISA-based assay with an antibody specific for NS3/4A. IC50 determinations were calculated as a percentage of a DMSO control by fitting the data to a four-parameter fit function and the data obtained is provided in the table below.
(§3) Data for selected compounds of the present invention was obtained for genotypes 1a and 1b using this method and is provided in the table below: […]

HCV replicon genotype 1b = assay: HCV replicon assay, genotype 1b (cell ELISA for NS3/4A); assay type: cell-based; conditions: Hepatitis C virus, 96 h, read-out: 1b IC50 (nM)
Description: as §1, §2, §3

SMILES: CNC(=O)c1c(-c2ccc(F)cc2)oc2cc(N(C)S(C)(=O)=O)c(-c3cn(C)c(=O)c(-c4cc5c(F)cccc5n4C)n3)cc12 [Compound 21, 5-(6-(4-fluoro-1-methyl-1H-indol-2-yl)-4-methyl-5-oxo-4,5-dihydropyrazin-2-yl)-2-(4-fluorophenyl)-N-methyl-6-(N-methylmethylsulfonamido)benzofuran-3-carboxamide]
- IC50 (HCV replicon genotype 1a): 13.7 nM
- IC50 (HCV replicon genotype 1b): 5.99 nM

SMILES: CNC(=O)c1c(-c2ccc(F)cc2)oc2ccc(-n3cc(C(=O)N[C@H](CO)c4ccc(F)cc4)ncc3=O)cc12 [Compound 22, (S)-N-(1-(4-fluorophenyl)-2-hydroxyethyl)-4-(2-(4-fluorophenyl)-3-(methylcarbamoyl)benzofuran-5-yl)-5-oxo-4,5-dihydropyrazine-2-carboxamide]
- IC50 (HCV replicon genotype 1a): 354 nM
- IC50 (HCV replicon genotype 1b): 193 nM

SMILES: CNC(=O)c1c(-c2ccc(F)cc2)oc2ccc(-n3cc(C(=O)NCc4ccc(F)cn4)ncc3=O)cc12 [Compound 23, 4-(2-(4-fluorophenyl)-3-(methylcarbamoyl)benzofuran-5-yl)-N-((5-fluoropyridin-2-yl)methyl)-5-oxo-4,5-dihydropyrazine-2-carboxamide]
- IC50 (HCV replicon genotype 1a): 492 nM
- IC50 (HCV replicon genotype 1b): 213 nM

SMILES: CNC(=O)c1c(-c2ccc(F)cc2)oc2ccc(-n3cc(C(=O)NC4(c5ccc(F)cc5)CC4)ncc3=O)cc12 [Compound 24, 4-(2-(4-fluorophenyl)-3-(methylcarbamoyl)benzofuran-5-yl)-N-(1-(4-fluorophenyl)cyclopropyl)-5-oxo-4,5-dihydropyrdzine-2-carboxamide]
- IC50 (HCV replicon genotype 1a): 80.8 nM
- IC50 (HCV replicon genotype 1b): 35.5 nM

SMILES: CNC(=O)c1c(-c2ccc(F)cc2)oc2ccc(-n3cc(C(=O)NC4(c5ccc6cnccc6n5)CC4)ncc3=O)cc12 [Compound 25, N-(1-(1,6-naphthyridin-2-yl)cyclopropyl)-4-(2-(4-fluorophenyl)-3-(methylcarbamoyl)benzofuran-5-yl)-5-oxo-4,5-dihydropyrazine-2-carboxamide]
- IC50 (HCV replicon genotype 1a): 72.5 nM
- IC50 (HCV replicon genotype 1b): 38.3 nM

SMILES: CNC(=O)c1c(-c2ccc(F)cc2)oc2ccc(-n3cc(C(=O)NC4(c5ccccc5)CC4)ncc3=O)cc12 [Compound 26, 4-(2-(4-fluorophenyl)-3-(methylcarbamoyl)benzofuran-5-yl)-5-oxo-N-(1-phenylcyclopropyl)-4,5-dihydropyrazine-2-carboxamide]
- IC50 (HCV replicon genotype 1a): 129 nM
- IC50 (HCV replicon genotype 1b): 29.7 nM

SMILES: CNC(=O)c1c(-c2ccc(F)cc2)oc2cc(N(C)S(C)(=O)=O)c(-c3cc(C(=O)N[C@H](C)c4ccc(F)cc4)c(=O)n(C)c3)cc12 [Compound 27, (R)-5-(2-(4-fluorophenyl)-3-(methylcarbamoyl)-6-(N-methylmethylsulfonamido)benzoturan-5-yl)-N-(1-(4-fluorophenyl)ethyl)-1-methyl-2-oxo-1,2-dihydropyridine-3-carboxamide]
- IC50 (HCV replicon genotype 1a): 6.87 nM
- IC50 (HCV replicon genotype 1b): 4.47 nM

SMILES: CNC(=O)c1c(-c2ccc(F)cc2)oc2cc(N(C)S(C)(=O)=O)c(-c3cnc(=O)n(-c4ccc5ccccc5c4)c3)cc12 [Compound 28, 2-(4-fluorophenyl)-N-methyl-6-(N-methylmethylsulfonamido)-5-(1-(naphthalen-2-yl)-2-oxo-1,2-dihydropyrimidin-5-yl)benzofuran-3-carboxamide]
- IC50 (HCV replicon genotype 1a): 116 nM
- IC50 (HCV replicon genotype 1b): 18 nM

SMILES: CNC(=O)c1c(-c2ccc(F)cc2)oc2cc(N(C)S(C)(=O)=O)c(-c3ccc(=O)n(-c4ccc(F)cc4)c3)cc12 [Compound 29, 2-(4-fluorophenyl)-5-(1-(4-fluorophenyl)-6-oxo-1,6-dihydropyridin-3-yl)-N-methyl-6-(N-methylmethylsulfonamido) benzofuran-3-carboxamide]
- IC50 (HCV replicon genotype 1a): 110 nM
- IC50 (HCV replicon genotype 1b): 31.8 nM

SMILES: CNC(=O)c1c(-c2ccc(F)cc2)oc2cc(N(C)S(C)(=O)=O)c(-c3cc4n(c(=O)c3)CCn3c-4cc4c(F)cccc43)cc12 [Compound 30, 5-(12-fluoro-4-oxo-6,7-dihydro-4H-pyrido[2′,1′:3,4]pyrazino[1,2-a]indol-2-yl)-2-(4-fluorophenyl)-N-methyl-6-(N-methylmethylsulfonamido)benzofuran-3-carboxamide]
- IC50 (HCV replicon genotype 1a): 3.52 nM
- IC50 (HCV replicon genotype 1b): 19 nM

SMILES: CNC(=O)c1c(-c2ccc(F)cc2)oc2cc(N(C)S(C)(=O)=O)c(-c3cc4n(c(=O)n3)CCn3c-4cc4c(F)cccc43)cc12 [Compound 31, 5-(12-fluoro-4-oxo-6,7-dihydro-4H-pyrimido[6′,1′:3,4]pyrazino[1,2-a]indol-2-yl)-2-(4-fluorophenyl)-N-methyl-6-(N-methylmethylsulfonamido)benzofuran-3-carboxamide]
- IC50 (HCV replicon genotype 1a): 3.48 nM
- IC50 (HCV replicon genotype 1b): 6.95 nM
